Patent EP2987533B1, “7-substituted piperazin-1-yl fluoroquinolone compounds, their use in the treatment of cancer, pharmaceutical compositions and a method for preparation” (priority 2014, dated 2016)

Assays:
Experiment in all cases: NCI one-dose SRB growth assay
Assay type in all cases: cell-based
786-0 = conditions: Homo sapiens; 786-0 (Renal Cancer), 10^-5 M, 48 h; read-out: % Growth Inhibition (GI %)
Procedure, shortened: (§1)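 Read-out: sulforhodamine B protein-binding dye, measured spectrophotometrically, expressed as percent growth of treated versus untreated cells. Cultures received test compound at 10^-5M and were incubated 48 h.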

BT-549 = conditions: Homo sapiens; BT-549 (Breast Cancer), 10^-5 M, 48 h; read-out: % Growth Inhibition (GI %)
Procedure, shortened: as §1

CAKI-1 = conditions: Homo sapiens; CAKI-1 (Renal Cancer), 10^-5 M, 48 h; read-out: % Growth Inhibition (GI %)
Procedure, shortened: as §1

DU-145 = conditions: Homo sapiens; DU-145 (Prostate Cancer), 10^-5 M, 48 h; read-out: % Growth Inhibition (GI %)
Procedure, shortened: as §1

HCC-2998 = conditions: Homo sapiens; HCC-2998 (Colon Cancer), 10^-5 M, 48 h; read-out: % Growth Inhibition (GI %)
Procedure, shortened: as §1

HCT-15 = conditions: Homo sapiens; HCT-15 (Colon Cancer), 10^-5 M, 48 h; read-out: % Growth Inhibition (GI %)
Procedure, shortened: as §1

HT29 = conditions: Homo sapiens, HT-29; HT29 (Colon Cancer), 10^-5 M, 48 h; read-out: % Growth Inhibition (GI %)
Procedure, shortened: as §1

LOX IMVI = conditions: Homo sapiens; LOX IMVI (Melanoma), 10^-5 M, 48 h; read-out: % Growth Inhibition (GI %)
Procedure, shortened: as §1

MDA-MB-231/ATCC = conditions: Homo sapiens; MDA-MB- 231/ATCC (Breast Cancer), 10^-5 M, 48 h; read-out: % Growth Inhibition (GI %)
Procedure, shortened: as §1

MDA-MB-468 = conditions: Homo sapiens; MDA-MB-468 (Breast Cancer), 10^-5 M, 48 h; read-out: % Growth Inhibition (GI %)
Procedure, shortened: as §1

MOLT-4 = conditions: Homo sapiens; MOLT-4 (Leukemia), 10^-5 M, 48 h; read-out: % Growth Inhibition (GI %)
Procedure, shortened: as §1

NCI-H322M = conditions: Homo sapiens; NCI-H322M (Non-Small Cell Lung Cancer), 10^-5 M, 48 h; read-out: % Growth Inhibition (GI %)
NCI-H460 = conditions: Homo sapiens; NCI-H460 (Non-Small Cell Lung Cancer), 10^-5 M, 48 h; read-out: % Growth Inhibition (GI %)
OVCAR-3 = conditions: Homo sapiens; OVCAR-3 (Ovarian Cancer), 10^-5 M, 48 h; read-out: % Growth Inhibition (GI %)
Procedure, shortened: as §1

OVCAR-4 = conditions: Homo sapiens; OVCAR-4 (Ovarian Cancer), 10^-5 M, 48 h; read-out: % Growth Inhibition (GI %)
Procedure, shortened: as §1

OVCAR-5 = conditions: Homo sapiens; OVCAR-5 (Ovarian Cancer), 10^-5 M, 48 h; read-out: % Growth Inhibition (GI %)
Procedure, shortened: as §1

PC-3 = conditions: Homo sapiens; PC-3 (Prostate Cancer), 10^-5 M, 48 h; read-out: % Growth Inhibition (GI %)
Procedure, shortened: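 Growth percentage versus untreated controls was derived from SRB protein-dye absorbance after cells were incubated 48 h with test compound at a single 10^-5M dose.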

SF-268 = conditions: Homo sapiens; SF-268 (CNS Cancer), 10^-5 M, 48 h; read-out: % Growth Inhibition (GI %)
SF-539 = conditions: Homo sapiens; SF-539 (CNS Cancer), 10^-5 M, 48 h; read-out: % Growth Inhibition (GI %)
Procedure, shortened: as §1

SK-MEL-28 = conditions: Homo sapiens; SK-MEL-28 (Melanoma), 10^-5 M, 48 h; read-out: % Growth Inhibition (GI %)
Procedure, shortened: as §1

SK-MEL-2 = conditions: Homo sapiens; SK-MEL-2 (Melanoma), 10^-5 M, 48 h; read-out: % Growth Inhibition (GI %)
SN12C = conditions: Homo sapiens; SN12C (Renal Cancer), 10^-5 M, 48 h; read-out: % Growth Inhibition (GI %)
Procedure, shortened: as §1

SNB-19 = conditions: Homo sapiens; SNB-19 (CNS Cancer), 10^-5 M, 48 h; read-out: % Growth Inhibition (GI %)
Procedure, shortened: as §1

T-47D = conditions: Homo sapiens, T47D; T-47D (Breast Cancer), 10^-5 M, 48 h; read-out: % Growth Inhibition (GI %)
Procedure, shortened: as §1

U251 = conditions: Homo sapiens, U-251; U251 (CNS Cancer), 10^-5 M, 48 h; read-out: % Growth Inhibition (GI %)
Procedure, shortened: as §1

UACC-62 = conditions: Homo sapiens; UACC-62 (Melanoma), 10^-5 M, 48 h; read-out: % Growth Inhibition (GI %)
Procedure, shortened: as §1

| SMILES | inhibition at 10 µM (786-0) | inhibition at 10 µM (BT-549) | inhibition at 10 µM (CAKI-1) | inhibition at 10 µM (DU-145) | inhibition at 10 µM (HCC-2998) | inhibition at 10 µM (HCT-15) | inhibition at 10 µM (HT29) | inhibition at 10 µM (LOX IMVI) | inhibition at 10 µM (MDA-MB-231/ATCC) | inhibition at 10 µM (MDA-MB-468) | inhibition at 10 µM (MOLT-4) | inhibition at 10 µM (NCI-H322M) | inhibition at 10 µM (NCI-H460) | inhibition at 10 µM (OVCAR-3) | inhibition at 10 µM (OVCAR-4) | inhibition at 10 µM (OVCAR-5) | inhibition at 10 µM (PC-3) | inhibition at 10 µM (SF-268) | inhibition at 10 µM (SF-539) | inhibition at 10 µM (SK-MEL-28) | further results |
| --- | --- | --- | --- | --- | --- | --- | --- | --- | --- | --- | --- | --- | --- | --- | --- | --- | --- | --- | --- | --- | --- |
| Cc1cc(C)c(S(=O)(=O)N2CCN(c3cc4c(cc3F)c(=O)c(C(=O)O)cn4C3CC3)CC2)c(C)c1 [Compound 6b] | 24.4% | 22.7% | 32.9% | 28.6% | 52.3% | 44.9% | 71.7% | 70.4% | 15.4% | 34.9% | 39% | 25.3% | 60.5% | < 10% | 24.4% | 57.8% | 32.1% | 43.3% | 53.5% | 30.9% | inhibition at 10 µM (SK-MEL-2): < 10%; inhibition at 10 µM (SN12C): 86.1%; inhibition at 10 µM (SNB-19): 33.7%; inhibition at 10 µM (T-47D): 37%; inhibition at 10 µM (U251): 80.3%; inhibition at 10 µM (UACC-62): 23.4% |
| CCn1cc(C(=O)O)c(=O)c2cc(F)c(N3CCN(S(=O)(=O)c4ccc(Cl)cc4Cl)CC3)cc21 [Compound 2a] | 81.3% | > 100% | 95.2% | 88.4% | 69.4% | 92.4% | 98.1% | > 100% | 74.5% | > 100% | 98.2% | > 100% | 89.1% | 92.1% | < 10% | 92.1% | 98.4% | 75.4% | 91.4% | < 10% | inhibition at 10 µM (SK-MEL-2): > 100%; inhibition at 10 µM (SN12C): 89.7%; inhibition at 10 µM (SNB-19): 73.8%; inhibition at 10 µM (T-47D): 98.3%; inhibition at 10 µM (U251): 87.9%; inhibition at 10 µM (UACC-62): 83.8% |
| O=C(O)c1cn(C2CC2)c2cc(N3CCN(S(=O)(=O)c4ccc(Cl)cc4Cl)CC3)c(F)cc2c1=O [Compound 2b] | < 10% | 13.7% | 12.1% | < 10% | < 10% | 16.2% | < 10% | 38.6% | < 10% | 65.1% | 24.1% | 12.8% | < 10% | < 10% | 35.9% | < 10% | 18.9% | 16.4% | < 10% | 49.1% | inhibition at 10 µM (SK-MEL-2): < 10%; inhibition at 10 µM (SN12C): 13.8%; inhibition at 10 µM (SNB-19): < 10%; inhibition at 10 µM (T-47D): 26.4%; inhibition at 10 µM (U251): < 10%; inhibition at 10 µM (UACC-62): 14.6% |
